From patent US11072812B2, “Substrates for covalent tethering of proteins to functional groups or solid surfaces” (PROMEGA CORPORATION, priority 2013, dated 2021)

Legend:
[1] = tested on: intracellular HDAC activity; assay: Intracellular HDAC activity, non-lytic HDAC-Glo I/II assay in HEK293 and K562 cells; format: cell-based; details: PBI-5040 relative to SAHA, 2 h
Method: HEK293 cells were plated into a 96-well plate at 1×10^5 cell/ml, and 24 h later, the media was replaced with serum free media. K562 cells were plated in serum free media (96-well plate) at 2×10^5 cells/ml.

HaloTag® protein [2] = assay: Binding efficiency/kinetics to HaloTag protein in cell lysate (chase with fluorescent HaloTag ligand, SDS-PAGE); details: SAHA-chloroalkane conjugates, 1 μM, 0-60 min; compared with PBI-5231 (O6)
Method: (§1) a) Binding efficiency to HaloTag® protein in lysate was measured by adding the methotrexate-chloroalkane conjugates to lysate from cells expressing a HaloTag® protein to a final concentration of 1 μM. Following 0-60 mins of binding, the reactions were chased with 1 μM fluorescent HaloTag® ligand. Unbound HaloTag® protein was detected through binding to the fluorescent HaloTag® ligand followed by analysis on SDS-PAGE gel and detection on a fluorescent gel scanner.
as §1, with “adding the dexamethasone-chloroalkane conjugates to” for “adding the methotrexate-chloroalkane conjugates to”, “the fluorescent HaloTag ligand followed” for “the fluorescent HaloTag® ligand followed”
a) Binding kinetics to HaloTag® protein in cell lysate was measured by adding the modified BIRB796-chloroalkane conjugates to lysate from cells expressing a HaloTag® protein at a final concentration of 1 μM. After 0-60 min of binding, the reactions were chased with 1 μM fluorescent HaloTag® ligand (Promega Corporation). Unbound HaloTag® protein was detected through binding to the fluorescent HaloTag® ligand followed by analysis on SDS-PAGE and detection on a fluorescent gel scanner.
Following 0-60 min of binding, the reactions were chased with 1 μM fluorescent HaloTag® ligand. Unbound HaloTag® protein was detected through binding to the fluorescent HaloTag® ligand followed by analysis on SDS-PAGE and detection on a fluorescent gel scanner.
a) Binding kinetics to HaloTag® protein in cell lysate was measured by adding the dasatinib-chloroalkane conjugates to lysate (final concentration of 1 μM) from cells expressing a HaloTag® protein. Following 0-60 min of binding, the reactions were chased with 1 μM fluorescent HaloTag® ligand. Unbound HaloTag® protein was detected through binding to the fluorescent HaloTag® ligand followed by analysis on SDS-PAGE and detection on a fluorescent gel scanner.

HaloTag® protein [3] = assay: Binding efficiency/kinetics to HaloTag protein in cells (cell permeability; chase with fluorescent HaloTag ligand, SDS-PAGE); format: cell-based; details: SAHA-chloroalkane conjugates, 10 μM, 0-180 min; HaloTag localized to cytoplasm or nucleus; compared with PBI-5231 (O6)
Method: b) Binding efficiency to HaloTag® protein in cells was measured by adding the methotrexate-chloroalkane conjugates to cells expressing a HaloTag® protein to a final concentration of 10 μM. Following 0-120 mins of binding, the reactions were chased with 5 μM fluorescent HaloTag® ligand. Unbound HaloTag® protein was detected through binding to the fluorescent HaloTag® ligand followed by cell lysis, analysis on a SDS-PAGE gel and detection on a fluorescent gel scanner.
b) Binding efficiency to HaloTag® protein in cells was measured by adding the dexamethasone-chloroalkane conjugates to cells expressing a HaloTag® protein to a final concentration of 10 μM. Following 0-60 mins of binding, the reaction was chased with 5 μM fluorescent HaloTag ligand. Unbound HaloTag® protein was detected through binding to the fluorescent HaloTag® ligand followed by cell lysis, analysis on SDS-PAGE gel and detection on a fluorescent gel scanner.
b) Binding kinetics to HaloTag® protein in cells was measured by adding the modified BIRB796-chloroalkane conjugates to cells expressing a HaloTag® protein at a final concentration of 10 μM. Following 0-60 min of binding, the reactions were chased with 5 μM fluorescent HaloTag® ligand. Unbound HaloTag® protein was detected through binding to the fluorescent HaloTag® ligand followed by cell lysis, analysis on SDS-PAGE and detection on a fluorescent gel scanner.
Following 0-180 min of binding, the reactions were chased with 5 μM fluorescent HaloTag® ligand. Unbound HaloTag® protein was detected through binding to the fluorescent HaloTag® ligand followed by cell lysis, analysis on SDS-PAGE and detection on a fluorescent gel scanner.
b) Binding kinetics to HaloTag® protein in cells was measured by adding the dasatinib-chloroalkane conjugates (final concentration of 10 μM) to cells expressing a HaloTag protein which localized to the cytoplasm or the nucleus. Following 0-90 min of binding, the reactions were chased with 5 μM fluorescent HaloTag® ligand. Unbound HaloTag® protein was detected through binding to the fluorescent HaloTag® ligand followed by cell lysis, analysis on SDS-PAGE and detection on a fluorescent gel scanner.

[4] = tested on: all known target of SAHA (HDAC1, HDAC2, HDAC3, HDAC6, HDAC8, HDAC10); assay: Pull-down of endogenous targets from K562 cells onto HaloTag protein beads, Western blot and mass spec analysis; format: cell-based
Method: K562 cells were plated into 150 mm dishes at 1.66×10^6 cell/ml (total of 5×10^7 cells per dish). […] Following equilibrium binding of 2 h, the media was removed; cells were quickly washed with PBS; cells lysed in a detergent-based lysis buffer for 10 min and centrifuged at 3000×g for 1 min. Clear lysates were then added to 75 ul of settled paramagnetic HaloTag® protein beads and incubated with shaking for 15 min. […] The released targets were subjected to mass spec analysis (FIG. 14B) as well as western blot analysis (FIG. 14A) with anti-HDAC1 antibody (ABCAM), anti-HDAC2 antibody (ABCAM), anti-HDAC6 antibody (Millipore), anti-HDAC3 antibody (Thermo Fisher), anti-HDAC10 (ABCAM) and anti-HDAC8 antibody (Rockland).

SMILES: O=C(CCCCCCC(=O)Nc1ccc(CNC(=O)OCCOCCOCCOC(=O)NCCOCCOCCCCCCCl)cc1)NO [PBI-5040, SAHA-Carbamate]
- reduction in SAHA potency due to the chloroalkane modification [1]: ~2 fold
- binding kinetics to HaloTag protein in cell lysate (HaloTag® protein [2]): significantly faster binding kinetics
- permeability/binding kinetics to HaloTag protein in cells (HaloTag® protein [3]): significantly faster permeability/binding kinetics
- pull-down of endogenous SAHA targets incl. low affinity (HDAC8) and low abundance (HDAC3) target ([4]; 20 uM, 2 h, beads 15 min, release with 400 μM SAHA): specifically pulled down
- cellular permeability ([4]; inferred from pull down of nuclear (HDAC1) and cytoplasmic (HDAC 6) proteins): high
